Consider 21 molecules from ChEMBL document CHEMBL5608205, “Design, synthesis and biological evaluation of novel SIRT3 inhibitors targeting both NAD+ and substrate binding sites for the treatment of acute myeloid leukemia” (Eur J Med Chem, 2024).

For data set [1], the target named is T1, NAD-dependent protein deacetylase sirtuin-3, mitochondrial (Homo sapiens, UniProt Q9NTG7).
T1 sequence (Q9NTG7 whole entry): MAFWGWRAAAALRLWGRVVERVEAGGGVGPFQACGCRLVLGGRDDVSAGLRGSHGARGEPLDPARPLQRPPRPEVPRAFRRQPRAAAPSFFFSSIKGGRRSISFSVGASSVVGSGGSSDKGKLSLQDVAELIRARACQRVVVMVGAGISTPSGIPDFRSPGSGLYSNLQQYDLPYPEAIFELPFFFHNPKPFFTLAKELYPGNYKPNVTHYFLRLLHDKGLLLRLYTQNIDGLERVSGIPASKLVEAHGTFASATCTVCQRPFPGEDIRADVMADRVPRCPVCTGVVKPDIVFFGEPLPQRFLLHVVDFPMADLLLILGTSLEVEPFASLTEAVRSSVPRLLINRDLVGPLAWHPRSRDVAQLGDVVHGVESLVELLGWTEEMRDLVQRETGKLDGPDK
The experiment in a line: Inhibition of wild type C-terminal human SIRT3 (118 to […] residues) expressed in Escherichia coli strain BL21DE3 Rosetta2 using Fluor de lys as substrate incubated for 30 mins by fluorescence based analysis.

The subject of data set [2] is MOLM-13. As to the kind of experiment: cells. The settings on record: Homo sapiens, MOLM-13, 24 h.
For data set [3], the system named is MV4-11. The experiment in a line: cells. Conditions: Homo sapiens, MV4-11, 24 h.
Data set [4] concerns HL-60. As to the kind of experiment: cells. The settings on record: Homo sapiens, HL-60, 24 h.
For data set [5], the target named is T2, NAD-dependent protein deacetylase sirtuin-2 (Homo sapiens, UniProt Q8IXJ6).
T2 sequence (Q8IXJ6 whole entry): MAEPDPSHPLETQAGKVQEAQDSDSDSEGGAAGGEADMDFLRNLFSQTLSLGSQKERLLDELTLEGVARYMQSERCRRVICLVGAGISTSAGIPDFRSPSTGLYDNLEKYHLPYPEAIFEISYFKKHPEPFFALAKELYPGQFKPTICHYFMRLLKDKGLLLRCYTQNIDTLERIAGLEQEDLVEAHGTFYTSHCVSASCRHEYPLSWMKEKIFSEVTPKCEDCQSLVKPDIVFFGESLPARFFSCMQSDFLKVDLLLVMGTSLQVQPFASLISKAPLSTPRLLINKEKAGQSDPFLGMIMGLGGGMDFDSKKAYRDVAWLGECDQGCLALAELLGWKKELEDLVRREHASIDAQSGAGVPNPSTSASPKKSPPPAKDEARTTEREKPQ
The experiment in a line: Inhibition of recombinant human SIRT2 using Fluor de lys as substrate incubated for 30 mins by fluorescence based analysis.

In data set [6] the test system is HL-60. As to the kind of experiment: Induction of apoptosis in human HL-60 cells assessed as viable cells at […] incubated for 24 hrs by annexin V/FITC and Propidium Iodide staining based flow cytometry analysis (reference value: 98.9%). Conditions: dose 2.5 µM, read-out: Activity. It is filed as functional. (A flow cytometer gives signals particle by particle.)

Data set [7] concerns HL-60. The experiment in a line: Induction of apoptosis in human HL-60 cells assessed as viable cells at 5 uM incubated for 24 hrs by annexin V/FITC and Propidium Iodide staining based flow cytometry analysis (reference value: 98.9%). Conditions: read-out: Activity. The class given is functional.
The subject of data set [8] is HL-60. The experiment in a line: Induction of apoptosis in human HL-60 cells assessed as viable cells at 10 uM incubated for 24 hrs by annexin V/FITC and Propidium Iodide staining based flow cytometry analysis (reference value: 98.9%). It is filed as functional. The settings on record: read-out: Activity.
In data set [9] the test system is MOLM-13. As to the kind of experiment: Induction of apoptosis in human MOLM-13 cells assessed as viable cells at […] incubated for 24 hrs by annexin V/FITC and Propidium Iodide staining based flow cytometry analysis (reference value: 98.1%). It is filed as functional. Conditions: dose 2.5 µM, read-out: Activity.
The test system of data set [10] is MOLM-13. As to the kind of experiment: Induction of apoptosis in human MOLM-13 cells assessed as viable cells at 5 uM incubated for 24 hrs by annexin V/FITC and Propidium Iodide staining based flow cytometry analysis (reference value: 98.1%). It is filed as functional. The settings on record: read-out: Activity.
Data set [11] concerns MOLM-13. As to the kind of experiment: Induction of apoptosis in human MOLM-13 cells assessed as viable cells at 10 uM incubated for 24 hrs by annexin V/FITC and Propidium Iodide staining based flow cytometry analysis (reference value: 98.1%). It is filed as functional. The settings on record: read-out: Activity.
In data set [12] the test system is MV4-11. As to the kind of experiment: Induction of apoptosis in human MV4-11 cells assessed as viable cells at […] incubated for 24 hrs by annexin V/FITC and Propidium Iodide staining based flow cytometry analysis (reference value: 95.4%). The settings on record: dose 2.5 µM, read-out: Activity. The class given is functional.
The test system of data set [13] is MV4-11. As to the kind of experiment: Induction of apoptosis in human MV4-11 cells assessed as viable cells at 5 uM incubated for 24 hrs by annexin V/FITC and Propidium Iodide staining based flow cytometry analysis (reference value: 95.4%). It is filed as functional. Conditions: read-out: Activity.
Data set [14] has as its system MV4-11. As to the kind of experiment: Induction of apoptosis in human MV4-11 cells assessed as viable cells at 10 uM incubated for 24 hrs by annexin V/FITC and Propidium Iodide staining based flow cytometry analysis (reference value: 95.4%). The class given is functional. The settings on record: read-out: Activity.
A short description of data set [15]: Toxicity in nude mouse assessed as effect on brain at 5 mg/kg, ip administered daily for upto 14 days. It is filed as organism-based. The settings on record: in vivo, 336 h, time < 14 day.
Data set [16] is described as follows: Toxicity in nude mouse assessed as effect on heart at 5 mg/kg, ip administered daily for upto 14 days. It is filed as organism-based. Conditions: in vivo, 336 h, time < 14 day.
Data set [17] is described as follows: Toxicity in nude mouse assessed as effect on liver at 5 mg/kg, ip administered daily for upto 14 days. The class given is organism-based. Conditions: in vivo, 336 h, time < 14 day.
A short description of data set [18]: Toxicity in nude mouse assessed as effect on spleen at 5 mg/kg, ip administered daily for upto 14 days. It is filed as organism-based. Conditions: in vivo, 336 h, time < 14 day.
The nature of data set [19]: Toxicity in nude mouse assessed as effect on lung at 5 mg/kg, ip administered daily for upto 14 days. It is filed as organism-based. The settings on record: in vivo, 336 h, time < 14 day.
Data set [20] in a line: Toxicity in nude mouse assessed as effect on kidney at 5 mg/kg, ip administered daily for upto 14 days. The settings on record: in vivo, 336 h, time < 14 day. The class given is organism-based.
The nature of data set [21]: Toxicity in nude mouse assessed as effect on body weight at 5 mg/kg, ip administered daily for upto 14 days. It is filed as organism-based. Conditions: in vivo, 336 h, time < 14 day.
For data set [22], the target named is T2, NAD-dependent protein deacetylase sirtuin-2. The experiment in a line: Inhibition of SIRT2 (unknown origin).
The target in data set [23] is T1, NAD-dependent protein deacetylase sirtuin-3, mitochondrial. As to the kind of experiment: Inhibition of recombinant human SIRT3 using Fluor de lys as substrate incubated for 30 mins by fluorescence based analysis.

In data set [1], `Oc1cc(O)cc(/C=C/c2ccc(Br)cc2)c1` showed an IC50 of 143 µM.

Take `c1cncc(-c2cnn[nH]2)c1`: the 50% inhibitory concentration (IC50) in the data set on MOLM-13 [2] is 12.6 µM; with MV4-11 [3] it was 27.8 µM; in the data set on HL-60 [4], over 50 µM.

On to `C#Cc1cccc(NC(=O)N2C[C@H]3C[C@@H](C2)N3c2ncnc3cc(C(N)=O)sc23)c1`, for which the IC50 with MOLM-13 [2] is 33.2 µM; in the data set on MV4-11 [3], 28.7 µM; in the data set on HL-60 [4], 38.2 µM.

As to `NC(=O)c1cc2ncnc(N3[C@@H]4CC[C@H]3CN(C(=O)Nc3ccc(C(F)(F)F)cc3)C4)c2s1`, the IC50 in data set [5] turned out to be 0.474 µM. In addition, the viability at […] amounted to 84.5% in the data set with HL-60 [6], 90.4% with MOLM-13 [9] and 85.7% with MV4-11 [12]. The values for the viability at 5 µM with HL-60 [7], in the data set on MOLM-13 [10] and in the data set on MV4-11 [13] were 78.2%, 67.5% and 78.2%, respectively. The values for the viability at 10 µM with HL-60 [8], in the data set with MOLM-13 [11] and in the data set on MV4-11 [14] were 73%, 62.5% and 65%, respectively. For the same molecule, the Activity result in data set [15], in [16], in data set [17], in data set [18], in data set [19] and in data set [20] was “Non-Toxic” in each case. In [21], the Activity result is recorded as “Non-Toxic”.

Regarding `NC(=O)c1cc2ncnc(N3CCN(C(=O)Nc4ccccc4F)CC3)c2s1`, the figures for the concentration for half-maximal inhibition (IC50) in the data set on MOLM-13 [2], in the data set on MV4-11 [3] and in the data set on HL-60 [4] were 39.8 µM, over 50 µM and over 50 µM, respectively.

Turning to `Cc1ccc(NC(=O)N2C[C@H]3C[C@@H](C2)N3c2ncnc3cc(C(N)=O)sc23)cc1`, the IC50 with MOLM-13 [2], with MV4-11 [3] and in the data set with HL-60 [4] was over 50 µM throughout.

Regarding `NC(=O)c1cc2ncnc(N3[C@@H]4CC[C@H]3CN(C(=O)Nc3ccc5ccccc5c3)C4)c2s1`, the concentration for half-maximal inhibition (IC50) in the data set with MOLM-13 [2] turned out to be 10.6 µM; in the data set with MV4-11 [3], 14.7 µM; in the data set on HL-60 [4], 17.4 µM.

Consider `NC(=O)c1cc2ncnc(N3CCN(C(=O)Nc4cc(Cl)cc(Cl)c4)CC3)c2s1`, for which the IC50 in the data set on MOLM-13 [2] turned out to be 3.47 µM; in the data set with MV4-11 [3], 7.28 µM; in the data set with HL-60 [4], 5.45 µM.

Regarding `NC(=O)c1cc2ncnc(N3[C@@H]4C[C@H]3CN(C(=O)Nc3ccc(Cl)c(Cl)c3)C4)c2s1`, the IC50 amounted to 25 µM with MOLM-13 [2], 19.9 µM in the data set on MV4-11 [3] and 27.1 µM in the data set with HL-60 [4].

With `NC(=O)c1cc2ncnc(N3CCN(C(=O)Nc4ccc(F)cc4F)CC3)c2s1`, the results for the IC50 with MOLM-13 [2], with MV4-11 [3] and in the data set on HL-60 [4] were 33.1 µM, over 50 µM and over 50 µM, respectively.

Consider `NC(=O)c1cc2ncnc(N3CCN(C(=O)Nc4ccc(Cl)cc4)CC3)c2s1`, for which the figures for the IC50 in the data set with MOLM-13 [2], in the data set with MV4-11 [3] and in the data set with HL-60 [4] were 4.26 µM, 12.3 µM and 36.3 µM, respectively.

Turning to `Cc1ccc(NC(=O)N2C[C@H]3CC[C@@H](C2)N3c2ncnc3cc(C(N)=O)sc23)cc1`, the half-maximal inhibitory concentration (IC50) in the data set on MOLM-13 [2] is 4.73 µM; with MV4-11 [3] it was 18.1 µM; in the data set on HL-60 [4], 36.9 µM.

For the molecule `Cc1ccc(NC(=O)N2CCN(c3ncnc4cc(C(N)=O)sc34)CC2)cc1`, the 50% inhibitory concentration (IC50) with MOLM-13 [2] amounted to 6.27 µM; in the data set on MV4-11 [3], 25.7 µM; in the data set with HL-60 [4], 36.3 µM.

For `NC(=O)c1cc2ncnc(N3[C@@H]4C[C@H]3CN(C(=O)Nc3ccccc3Cl)C4)c2s1`, the concentration for half-maximal inhibition (IC50) in the data set with MOLM-13 [2], in the data set with MV4-11 [3] and in the data set on HL-60 [4] was over 50 µM in each case.

With `NC(=O)c1cc2ncnc(N3[C@@H]4C[C@H]3CN(C(=O)Nc3cc(C(F)(F)F)cc(C(F)(F)F)c3)C4)c2s1`, the IC50 was determined as 41.5 µM in the data set with MOLM-13 [2], 26.3 µM in the data set with MV4-11 [3] and 31.5 µM with HL-60 [4].

For the molecule `NC(=O)c1cc2ncnc(N3[C@@H]4C[C@H]3CN(C(=O)Nc3ccc(C(F)(F)F)cc3)C4)c2s1`, the concentration for half-maximal inhibition (IC50) was found to be 38.3 µM in the data set on MOLM-13 [2], 26.3 µM with MV4-11 [3] and 36.6 µM in the data set with HL-60 [4].

In the case of `NC(=O)c1cc2ncnc(N3[C@@H]4C[C@H]3CN(C(=O)Nc3ccc(F)cc3F)C4)c2s1`, the IC50 in the data set on MOLM-13 [2], in the data set with MV4-11 [3] and with HL-60 [4] was over 50 µM each time.

`CCNC(=S)c1ccc(C(=O)NCCC2CCN(c3ncnc4cc(C(N)=O)sc34)CC2)s1`: the IC50 in [22] worked out at 0.0027 µM.

As to `NC(=O)c1cc2ncnc(N3CCN(C(=O)NC4CCCCC4)CC3)c2s1`, the half-maximal inhibitory concentration (IC50) with MOLM-13 [2] came out at 17.7 µM; with MV4-11 [3], 33.3 µM; in the data set with HL-60 [4], 37.1 µM.

As for `NC(=O)c1cc2ncnc(N3[C@@H]4C[C@H]3CN(C(=O)Nc3cccc(Cl)c3)C4)c2s1`, the half-inhibitory concentration (IC50) was 36.1 µM with MOLM-13 [2], 34.1 µM in the data set with MV4-11 [3] and over 50 µM in the data set with HL-60 [4].

For the molecule `NC(=O)c1cc2ncnc(N3[C@@H]4CC[C@H]3CN(C(=O)Nc3ccc(Cl)c(Cl)c3)C4)c2s1`, the IC50 in data set [23] was found to be 0.125 µM; in the data set with MOLM-13 [2], 2.35 µM; in the data set with MV4-11 [3], 5.09 µM; in the data set on HL-60 [4], 1.15 µM.

As a reminder, the IC50 is the concentration that inhibits the measured activity by half.
